From ChEMBL document CHEMBL1201862, “PubChem BioAssay data set” (2004) come the findings set out here.

The term EC50 denotes the concentration at which the effect is half-maximal. Usually IC50 stands for the point on the concentration scale where inhibition reaches its midpoint. The AC50 is the concentration giving half of the maximal activity seen. A word on the Ki: it is the equilibrium dissociation constant of an inhibitor or competing ligand from its target. As a reminder, the CC50 is the concentration giving 50% cytotoxicity.

The structures appear in SMILES notation. Active and inactive are the calls of the source.

In one assay the target is T1, Streptokinase A (Streptococcus pyogenes serotype M1, UniProt P10520).
T1 sequence (P10520 whole entry): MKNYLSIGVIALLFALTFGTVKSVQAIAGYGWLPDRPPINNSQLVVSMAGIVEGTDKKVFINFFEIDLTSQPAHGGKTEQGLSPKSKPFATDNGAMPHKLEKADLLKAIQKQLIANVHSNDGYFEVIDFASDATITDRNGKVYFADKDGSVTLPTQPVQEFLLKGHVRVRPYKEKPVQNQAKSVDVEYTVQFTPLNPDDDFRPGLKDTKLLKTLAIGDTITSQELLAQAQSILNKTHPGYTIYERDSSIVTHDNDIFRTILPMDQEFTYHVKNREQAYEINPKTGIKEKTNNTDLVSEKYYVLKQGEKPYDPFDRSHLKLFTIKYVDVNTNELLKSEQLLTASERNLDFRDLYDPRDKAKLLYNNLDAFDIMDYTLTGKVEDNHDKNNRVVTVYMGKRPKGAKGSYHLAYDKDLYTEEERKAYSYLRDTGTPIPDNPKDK
Description: viability-normalized secreted streptokinase activity reduction – plasminogen activation absorbance, OD405, dose response (AID 1914).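 Note: secreted streptokinase activity via plasminogen activation per viability signal from cell pellet.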 Type of assay: functional, Streptococcus pyogenes M1 GAS.

The next assay concerns the target T2, Bcl-2-related protein A1 (Mus musculus, UniProt Q07440).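 Note: confirmatory dose–response counterscreen on Bfl-1, used to check hits from a UBC13 polyubiquitin inhibitor campaign.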
T2 sequence (Q07440 whole entry): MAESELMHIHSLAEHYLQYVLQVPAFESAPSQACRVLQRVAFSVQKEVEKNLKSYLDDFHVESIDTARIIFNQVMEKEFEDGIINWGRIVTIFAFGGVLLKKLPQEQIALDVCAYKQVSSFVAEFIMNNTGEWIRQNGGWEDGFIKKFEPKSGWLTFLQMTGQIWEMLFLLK
It counts as functional.

In assay [1] the target is C-C chemokine receptor type 6 (Homo sapiens, UniProt P51684). Description: analog antagonism of CCR6 beta-arrestin signaling – cell-based, luminescent beta-arrestin readout, SAR follow-up (AID 540334). Type of assay: functional.
The target in assay [2] is Voltage-gated inwardly rectifying potassium channel KCNH2 (Homo sapiens, UniProt Q12809). Conditions: Potency.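 Note: confirmatory quantitative high-throughput screen measuring inhibition of hERG channel activity.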
Assay [3] deals with C-X-C chemokine receptor type 5 (Homo sapiens, UniProt P32302). In words: inhibition of CXCL13-driven CXCR5 beta-arrestin recruitment – cell-based, luminescence, CHO-K1 PathHunter, selectivity assay for CCR6 antagonist project, SAR follow-up (AID 540340). It counts as functional.
The next assay deals with Streptococcus. In words: GAS UMAA2166 growth inhibition – luminescence, BacTiterGlo, counter-screen for streptokinase expression inhibitor project, dose response (AID 1915).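 Note: potency for reduction of bacterial viability or growth.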 Type of assay: functional, organism-based.
Assay [4] relates to Streptococcus sp. 'group A'. Description: Streptococcus pyogenes SK(-)GAS viability under kanamycin – luminescence, BacTiterGlo, confirmation, counter-screen for streptokinase expression inhibitor project, dose response (AID 1900). It counts as functional, organism-based. On the technique in general: Counterscreens check selectivity or assay interference.
In assay [5] the target is T3, Ubiquitin-conjugating enzyme E2 N (Homo sapiens, UniProt P61088).
T3 sequence (P61088 whole entry): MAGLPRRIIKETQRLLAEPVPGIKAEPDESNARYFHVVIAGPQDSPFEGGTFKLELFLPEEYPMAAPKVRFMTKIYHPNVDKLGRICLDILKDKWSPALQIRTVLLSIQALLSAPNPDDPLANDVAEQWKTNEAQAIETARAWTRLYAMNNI
It counts as functional.

Assay [6] addresses T3, Ubiquitin-conjugating enzyme E2 N. It counts as functional. The source holds these as a separate data set.
In the next assay the target is Apelin receptor (Homo sapiens, UniProt P35414). Description: apelin receptor antagonists, arrestin read-out – cell-based, luminescent, enzyme-fragment complementation, selectivity assay for CCR6 antagonist project, SAR follow-up (AID 588359). Type of assay: functional.
Sequence of Apelin receptor (P35414 whole entry, the tested form may be a part): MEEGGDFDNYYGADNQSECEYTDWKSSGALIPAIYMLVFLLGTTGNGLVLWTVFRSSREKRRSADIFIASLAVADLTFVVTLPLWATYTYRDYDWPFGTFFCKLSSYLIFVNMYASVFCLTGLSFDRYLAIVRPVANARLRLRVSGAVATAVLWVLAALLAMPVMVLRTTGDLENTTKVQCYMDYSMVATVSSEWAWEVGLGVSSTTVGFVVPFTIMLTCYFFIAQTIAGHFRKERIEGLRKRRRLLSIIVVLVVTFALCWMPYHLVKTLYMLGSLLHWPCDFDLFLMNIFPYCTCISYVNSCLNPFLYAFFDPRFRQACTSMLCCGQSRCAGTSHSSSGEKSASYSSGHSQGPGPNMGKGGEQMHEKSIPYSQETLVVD
Assay [7] has as its target Serine/threonine-protein kinase BRSK1 (Homo sapiens, UniProt Q8TDC3). Type of assay: functional.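 Note: measured within a kinome-wide kinase panel, with the target listed as KIAA1811.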
The target in assay [8] is Megakaryocyte-associated tyrosine-protein kinase (Homo sapiens, UniProt P42679). Type of assay: functional.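 Note: affinity measured as one member of a kinase panel (Navigating the Kinome) against MATK.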
In assay [9] the target is Interleukin-1 receptor-associated kinase 1 (Homo sapiens, UniProt P51617). Type of assay: functional.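 Note: IRAK1 tested as one member of a kinome panel.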
Assay [10] has as its target Testis-specific serine/threonine-protein kinase 2 (Homo sapiens, UniProt Q96PF2). Type of assay: functional.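 Note: part of the Navigating the Kinome panel, target entry STK22B.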
In assay [11] the target is Eukaryotic elongation factor 2 kinase (Homo sapiens, UniProt O00418). Type of assay: functional.
The target in assay [12] is Dual specificity tyrosine-phosphorylation-regulated kinase 4 (Homo sapiens, UniProt Q9NR20). Type of assay: functional.
The target of assay [13] is Protein kinase C gamma type (Homo sapiens, UniProt P05129). Type of assay: functional.
For assay [14], the target named is Serine/threonine-protein kinase D2 (Homo sapiens, UniProt Q9BZL6). It counts as functional.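 Note: measured against PRKD2 as one member of a kinome-wide kinase profiling panel.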
The target of assay [15] is MAP kinase-activated protein kinase 3 (Homo sapiens, UniProt Q16644). Type of assay: functional.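 Note: value comes from a kinome-wide profiling panel in which MAPKAPK3 is one of the panel members.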
The target in assay [16] is Lymphokine-activated killer T-cell-originated protein kinase (Homo sapiens, UniProt Q96KB5). Type of assay: functional.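 Note: value comes from a kinase panel screen in which TOPK was one of the panel members.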
Assay [17] can be described thus: THP-1 cell cytotoxicity, cytotoxicity control, set 6 (AID 602433). It counts as functional. The conditions noted are these: Mycobacterium tuberculosis.
Assay [18] addresses Serine/threonine-protein kinase Chk1 (Homo sapiens, UniProt O14757). Type of assay: functional.
Assay [19] has as its target Ribosomal protein S6 kinase alpha-3 (Homo sapiens, UniProt P51812). It counts as functional.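 Note: measured within a kinome-wide profiling panel.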
For assay [20], the target named is Serine/threonine-protein kinase pim-1 (Homo sapiens, UniProt P11309). Type of assay: functional.
Sequence of Serine/threonine-protein kinase pim-1 (P11309 whole entry): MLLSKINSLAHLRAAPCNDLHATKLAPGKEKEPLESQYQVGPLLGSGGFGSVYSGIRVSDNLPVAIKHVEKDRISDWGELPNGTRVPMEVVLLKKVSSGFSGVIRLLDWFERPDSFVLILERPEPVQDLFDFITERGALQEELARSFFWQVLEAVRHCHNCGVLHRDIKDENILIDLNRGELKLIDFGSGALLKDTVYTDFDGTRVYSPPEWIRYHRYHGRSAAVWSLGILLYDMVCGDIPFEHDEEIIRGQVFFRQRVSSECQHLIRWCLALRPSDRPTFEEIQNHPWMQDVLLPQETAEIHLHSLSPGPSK
Assay [21] has as its target Tyrosine-protein kinase SYK (Homo sapiens, UniProt P43405). Type of assay: functional.
The target of assay [22] is Receptor-type tyrosine-protein kinase FLT3 (Homo sapiens, UniProt P36888). Type of assay: functional.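 Note: FLT3 was tested as one member of a kinome-wide kinase panel.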
The target of assay [23] is Cyclin-dependent kinase 8 (Homo sapiens, UniProt P49336). Description: Navigating the Kinome. Panel member name: CDK8. Type of assay: functional.
Assay [24] has as its target Cyclin-dependent kinase 9 (Homo sapiens, UniProt P50750). It counts as functional.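 Note: value from the CDK9 entry of a kinome-spanning kinase panel.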
Assay [25] concerns the target Homeodomain-interacting protein kinase 2 (Homo sapiens, UniProt Q9H2X6). It counts as functional.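 Note: measured within a kinome-wide kinase profiling panel, HIPK2 being one panel member.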
Assay [26] concerns the target Serine/threonine-protein kinase PAK 4 (Homo sapiens, UniProt O96013). Type of assay: functional.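 Note: value obtained within a kinome profiling panel in which PAK4 was one of the panel members.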
Assay [27] concerns the target Dual specificity protein kinase CLK2 (Homo sapiens, UniProt P49760). It counts as functional.
Assay [28] concerns the target Mitogen-activated protein kinase kinase kinase kinase 4 (Homo sapiens, UniProt O95819). It counts as functional.
Assay [29] deals with Tyrosine-protein kinase JAK3 (Homo sapiens, UniProt P52333). Type of assay: functional.
For assay [30], the target named is Serine/threonine-protein kinase 3 (Homo sapiens, UniProt Q13188). It counts as functional.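 Note: measured as one member of a kinome-wide kinase panel.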
Assay [31] addresses Maternal embryonic leucine zipper kinase (Homo sapiens, UniProt Q14680). It counts as functional.
The target of assay [32] is Serine/threonine-protein kinase 17A (Homo sapiens, UniProt Q9UEE5). It counts as functional.
The target of assay [33] is Glycogen synthase kinase-3 beta (Homo sapiens, UniProt P49841). It counts as functional.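 Note: value comes from a broad kinome profiling panel, with GSK3B as the panel member.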
Assay [34] deals with Serine/threonine-protein kinase N2 (Homo sapiens, UniProt Q16513). It counts as functional.
Sequence of Serine/threonine-protein kinase N2 (Q16513 whole entry): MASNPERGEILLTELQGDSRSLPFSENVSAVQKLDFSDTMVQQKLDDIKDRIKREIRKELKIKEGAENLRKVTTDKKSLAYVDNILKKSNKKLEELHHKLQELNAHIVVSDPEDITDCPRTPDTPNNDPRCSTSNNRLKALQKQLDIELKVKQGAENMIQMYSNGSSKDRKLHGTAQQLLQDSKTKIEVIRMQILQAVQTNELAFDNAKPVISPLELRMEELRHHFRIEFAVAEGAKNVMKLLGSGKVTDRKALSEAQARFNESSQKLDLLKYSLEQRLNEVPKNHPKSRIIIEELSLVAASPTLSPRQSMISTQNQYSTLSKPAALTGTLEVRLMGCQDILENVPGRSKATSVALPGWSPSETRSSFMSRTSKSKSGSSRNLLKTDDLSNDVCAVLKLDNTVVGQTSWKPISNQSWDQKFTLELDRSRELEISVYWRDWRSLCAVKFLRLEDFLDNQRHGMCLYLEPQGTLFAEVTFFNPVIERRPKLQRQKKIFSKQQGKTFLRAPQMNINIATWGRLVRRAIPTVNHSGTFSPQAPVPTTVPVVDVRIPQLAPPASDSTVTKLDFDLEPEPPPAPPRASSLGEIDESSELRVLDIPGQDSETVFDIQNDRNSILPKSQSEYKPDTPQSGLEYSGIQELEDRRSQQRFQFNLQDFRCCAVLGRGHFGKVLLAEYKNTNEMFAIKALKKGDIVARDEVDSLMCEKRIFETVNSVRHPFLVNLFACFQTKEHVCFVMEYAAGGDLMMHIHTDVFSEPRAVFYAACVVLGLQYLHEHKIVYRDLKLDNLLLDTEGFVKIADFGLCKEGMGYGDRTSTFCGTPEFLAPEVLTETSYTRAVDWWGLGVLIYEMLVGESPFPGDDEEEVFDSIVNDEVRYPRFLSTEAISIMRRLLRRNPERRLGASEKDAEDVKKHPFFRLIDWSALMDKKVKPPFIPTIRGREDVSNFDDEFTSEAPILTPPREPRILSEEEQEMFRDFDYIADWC
Assay [35] has as its target Mitogen-activated protein kinase kinase kinase kinase 5 (Homo sapiens, UniProt Q9Y4K4). It counts as functional.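 Note: measured as one member of a kinome-spanning kinase panel.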
The target of assay [36] is Cyclin-dependent kinase 7 (Homo sapiens, UniProt P50613). It counts as functional.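 Note: value comes from a kinome-wide kinase profiling panel in which CDK7 is one member.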
Sequence of Cyclin-dependent kinase 7 (P50613 whole entry): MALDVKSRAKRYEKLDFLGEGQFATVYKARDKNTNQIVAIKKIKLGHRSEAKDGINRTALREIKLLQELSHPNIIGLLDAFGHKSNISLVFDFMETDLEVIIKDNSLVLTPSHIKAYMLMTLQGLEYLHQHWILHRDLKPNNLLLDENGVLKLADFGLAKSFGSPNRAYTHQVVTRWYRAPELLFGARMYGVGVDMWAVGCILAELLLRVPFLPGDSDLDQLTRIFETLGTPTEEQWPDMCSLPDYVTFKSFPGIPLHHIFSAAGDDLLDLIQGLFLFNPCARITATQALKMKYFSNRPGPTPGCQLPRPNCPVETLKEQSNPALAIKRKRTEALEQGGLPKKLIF
For assay [37], the target named is Serine/threonine-protein kinase D3 (Homo sapiens, UniProt O94806). Type of assay: functional.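 Note: determined within a kinase panel screen, with PRKCN as the panel member.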
The target of assay [38] is Casein kinase I isoform alpha (Homo sapiens, UniProt P48729). It counts as functional.
The target of assay [39] is Calcium/calmodulin-dependent protein kinase type II subunit delta (Homo sapiens, UniProt Q13557). It counts as functional.
Sequence of Calcium/calmodulin-dependent protein kinase type II subunit delta (Q13557 whole entry): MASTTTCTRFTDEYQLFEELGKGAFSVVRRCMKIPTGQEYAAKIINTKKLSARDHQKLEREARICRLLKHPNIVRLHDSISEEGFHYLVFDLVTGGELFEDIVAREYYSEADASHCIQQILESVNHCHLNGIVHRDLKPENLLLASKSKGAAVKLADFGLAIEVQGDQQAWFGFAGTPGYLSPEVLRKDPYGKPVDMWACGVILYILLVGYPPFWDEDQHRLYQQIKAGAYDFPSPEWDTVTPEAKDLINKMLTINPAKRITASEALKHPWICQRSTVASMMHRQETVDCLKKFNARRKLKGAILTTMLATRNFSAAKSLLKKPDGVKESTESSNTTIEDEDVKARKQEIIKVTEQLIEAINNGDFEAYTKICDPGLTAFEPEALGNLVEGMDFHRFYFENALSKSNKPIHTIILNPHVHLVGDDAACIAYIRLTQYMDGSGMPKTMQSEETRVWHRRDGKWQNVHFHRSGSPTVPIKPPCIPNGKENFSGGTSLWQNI
Assay [40] has as its target cAMP-dependent protein kinase catalytic subunit alpha (Homo sapiens, UniProt P17612). Type of assay: functional.
Assay [41] deals with cAMP-dependent protein kinase catalytic subunit PRKX (Homo sapiens, UniProt P51817). It counts as functional.
Assay [42] has as its target Dual specificity protein kinase CLK4 (Homo sapiens, UniProt Q9HAZ1). Type of assay: functional.
For assay [43], the target named is Death-associated protein kinase 3 (Homo sapiens, UniProt O43293). It counts as functional.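 Note: measured as one member of a kinome-wide profiling panel.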
Sequence of Death-associated protein kinase 3 (O43293 whole entry): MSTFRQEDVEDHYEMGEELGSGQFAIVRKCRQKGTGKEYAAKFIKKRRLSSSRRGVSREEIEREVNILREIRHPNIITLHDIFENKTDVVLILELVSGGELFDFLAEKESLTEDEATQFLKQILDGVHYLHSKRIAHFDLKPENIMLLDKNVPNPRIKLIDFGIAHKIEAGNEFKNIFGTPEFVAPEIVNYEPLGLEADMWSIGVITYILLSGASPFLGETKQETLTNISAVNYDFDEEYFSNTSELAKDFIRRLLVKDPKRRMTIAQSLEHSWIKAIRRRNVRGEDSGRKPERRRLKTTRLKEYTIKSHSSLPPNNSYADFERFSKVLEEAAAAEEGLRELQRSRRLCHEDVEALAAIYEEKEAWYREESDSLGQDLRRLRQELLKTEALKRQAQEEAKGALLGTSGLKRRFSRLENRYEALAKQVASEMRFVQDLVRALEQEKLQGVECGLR
The target in the next assay is Misshapen-like kinase 1 (Homo sapiens, UniProt Q8N4C8). It counts as functional.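 Note: kinome panel screen with MINK as the panel member.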

Sequence of Dual specificity protein kinase CLK4 (Q9HAZ1 whole entry): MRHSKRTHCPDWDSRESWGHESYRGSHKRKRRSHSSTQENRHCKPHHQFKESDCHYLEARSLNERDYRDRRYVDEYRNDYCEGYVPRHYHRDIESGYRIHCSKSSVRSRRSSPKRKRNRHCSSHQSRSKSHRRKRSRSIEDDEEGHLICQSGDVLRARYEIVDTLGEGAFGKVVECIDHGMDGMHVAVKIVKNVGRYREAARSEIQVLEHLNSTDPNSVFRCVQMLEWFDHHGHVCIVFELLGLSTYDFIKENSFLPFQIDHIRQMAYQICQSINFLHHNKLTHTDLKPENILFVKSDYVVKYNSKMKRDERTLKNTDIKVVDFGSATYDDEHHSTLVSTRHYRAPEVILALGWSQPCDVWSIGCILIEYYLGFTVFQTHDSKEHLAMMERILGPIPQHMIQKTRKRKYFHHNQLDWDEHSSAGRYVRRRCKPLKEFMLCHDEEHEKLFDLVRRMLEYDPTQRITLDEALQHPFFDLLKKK
Sequence of Serine/threonine-protein kinase BRSK1 (Q8TDC3 whole entry): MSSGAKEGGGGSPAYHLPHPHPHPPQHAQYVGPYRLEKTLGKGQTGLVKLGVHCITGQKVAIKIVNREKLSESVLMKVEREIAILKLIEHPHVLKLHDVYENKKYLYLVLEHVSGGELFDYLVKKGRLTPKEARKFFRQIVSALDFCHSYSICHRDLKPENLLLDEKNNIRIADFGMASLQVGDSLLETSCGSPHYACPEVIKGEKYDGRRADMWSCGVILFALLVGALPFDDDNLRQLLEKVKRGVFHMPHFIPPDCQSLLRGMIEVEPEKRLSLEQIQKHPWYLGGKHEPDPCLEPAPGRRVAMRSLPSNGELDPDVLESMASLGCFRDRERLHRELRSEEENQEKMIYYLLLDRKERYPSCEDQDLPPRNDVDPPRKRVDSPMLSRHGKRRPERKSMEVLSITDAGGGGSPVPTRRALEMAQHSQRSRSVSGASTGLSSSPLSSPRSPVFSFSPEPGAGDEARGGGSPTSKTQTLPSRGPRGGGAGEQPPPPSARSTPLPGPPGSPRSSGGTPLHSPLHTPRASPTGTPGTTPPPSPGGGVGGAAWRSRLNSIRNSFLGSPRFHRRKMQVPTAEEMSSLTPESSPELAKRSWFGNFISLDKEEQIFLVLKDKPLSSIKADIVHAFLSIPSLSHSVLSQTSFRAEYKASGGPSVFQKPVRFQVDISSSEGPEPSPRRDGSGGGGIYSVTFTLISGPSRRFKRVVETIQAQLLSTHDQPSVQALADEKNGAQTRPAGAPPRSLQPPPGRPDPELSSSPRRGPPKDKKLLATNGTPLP
Sequence of Serine/threonine-protein kinase Chk1 (O14757 whole entry): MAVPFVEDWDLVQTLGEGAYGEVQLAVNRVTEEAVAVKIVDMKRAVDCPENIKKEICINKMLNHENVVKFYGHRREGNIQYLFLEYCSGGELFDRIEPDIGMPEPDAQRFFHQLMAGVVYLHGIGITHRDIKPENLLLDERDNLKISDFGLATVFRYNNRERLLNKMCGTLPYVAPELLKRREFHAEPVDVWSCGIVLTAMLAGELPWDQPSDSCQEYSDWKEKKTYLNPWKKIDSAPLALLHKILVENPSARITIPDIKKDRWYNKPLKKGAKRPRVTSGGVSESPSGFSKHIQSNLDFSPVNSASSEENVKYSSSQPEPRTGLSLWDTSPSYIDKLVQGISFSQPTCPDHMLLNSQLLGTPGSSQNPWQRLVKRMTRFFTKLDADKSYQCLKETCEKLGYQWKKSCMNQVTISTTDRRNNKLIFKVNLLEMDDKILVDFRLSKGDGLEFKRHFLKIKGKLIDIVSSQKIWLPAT

As to `CCCCCCCCCCCCC/C=C/[C@@H](O)[C@@H](N)CO` [SPHINGOSINE], the EC50 on Streptokinase A was > 150 µM (not active); in the assay on Streptococcus, 8.1 µM (active); in assay [4], 1.52 µM (active). Moreover, the IC50 was > 20 µM (inactive) at Bcl-2-related protein A1; 20.9 µM (inactive) in assay [1]; 32.5 µM (inactive) in [3]; 6.42 µM (active) in assay [5]; 6.2 µM (active) in [6]; > 66.6 µM (inactive) on Apelin receptor. Besides, in assay [2], the concentration at half-maximal activity (AC50) was 35.5 µM (inconclusive).
With `CC1=NN(c2ccc(C(=O)O)cc2)C(=O)C1=Cc1c(C)cc2nc3ccccc3n2c1O`, the Ki in assay [7] was 5.01 µM (active); in assay [8], 1.58 µM (active); in [9], 6.31 µM (active).
Turning to `CCN(CC)CCNC(=O)c1c(C)[nH]c(C=C2C(=O)Nc3ccc(F)cc32)c1C`, the Ki in assay [10] was 631 nM (active); in assay [11] it was > 3.98 µM (inactive); in assay [12] it was > 7.94 µM (inactive); in [13], > 6.31 µM (inactive); in [14], 398 nM (active); in [15], > 10 µM (inactive). Also, in [16], the Ki was > 10 µM (inactive).
With `COCCNC(=O)CSc1nc2ccccc2c(=O)[nH]1`, the CC50 in [17] was > 100 µM (active).
As for `Cc1ccc2c(=O)[nH]cnc2c1`, the Ki is 15.8 µM (active) in assay [18], 5.01 µM (active) in assay [19] and 7.94 µM (active) in [20].
On to `O=C(O)c1ccccc1Nc1ncnc(Nc2ccc3cn[nH]c3c2)n1`, for which the Ki was 501 nM (active) in [21]; 63.1 nM (active) in assay [22]; > 3.98 µM (inactive) in assay [23]; 200 nM (active) in assay [24]; 158 nM (active) in assay [25]; 1 µM (active) in assay [26]. The Ki in assay [27] was 3.16 µM (active); in assay [28] it was 2 µM (active); in assay [29], 1 µM (active); in assay [30] it was 501 nM (active); in assay [31], 158 nM (active); in assay [32], 20 nM (active). For the same molecule, the Ki in assay [33] is 15.8 nM (active); in assay [34], 2 µM (active); in assay [35], 2.51 µM (active); in assay [36], 1.58 µM (active); in assay [37], 398 nM (active); in [38], 2 µM (active). For the same molecule, the Ki is > 3.16 µM (inactive) in assay [39]; 3.98 µM (active) in assay [40]; 1 µM (active) in assay [41]; 126 nM (active) in assay [42]; 200 nM (active) in assay [43]; > 2.51 µM (inactive) at Misshapen-like kinase 1. Further, in assay [20], the Ki is 1 µM (active).
